Measured values from PMC8725837, “2-Arylquinolines as novel anticancer agents with dual EGFR/FAK kinase inhibitory activity: synthesis, biological evaluation, and molecular modelling insights” (Journal of Enzyme Inhibition and Medicinal Chemistry, 2021).

Assays:
FRK = biological target: T1, FRK (Homo sapiens, UniProt P42685); assay: Z`-LYTE kinase profiling, FRK; assay type: biochemical
T1 construct: purchased Invitrogen/Life Technologies

[1] = test system: MCF-7 breast cancer cell line; assay: MTT antiproliferative assay, MCF-7; assay type: cell-based; conditions: 10 µM, 24 h
Procedure: (§1) At least, three independent experiments were performed.

VEGFR-2 = biological target: T2, VEGFR-2 (Homo sapiens, UniProt P35968); assay: Z`-LYTE kinase profiling, VEGFR-2; assay type: biochemical
T2 construct: purchased Invitrogen/Life Technologies

[2] = test system: HCT-116 colorectal cancer cell line; assay: MTT antiproliferative assay, HCT-116; conditions: for GI% HCT-116: 10 µM, 24 h, MTT; for IC50: Homo sapiens, HCT-116, 24 h, read-out: IC50 HCT-116 (half maximal growth inhibitory concentration)
Procedure: (§2) After the incubation of the tested compounds for 24 h, the percent growth inhibition (GI%) was calculated.
(§3) Cells were seeded at 1 × 10^4 cells/well and cultured overnight in a 96-well plate. […] Then, 150 µl DMSO was used to solubilise MTT formazan crystals. Finally, the plates were shaken, and the optical density was determined at 570 nm using ELISA plate reader. At least, three independent experiments were performed. Percentage of growth inhibition was determined as (1-[OD of treated cells/OD of control cells]). […] The IC50 values were calculated using Prism v0.8 software (GraphPad Software Inc., La Jolla, CA).

HER-2 = biological target: T3, HER-2 (Homo sapiens, UniProt P04626); assay: Z`-LYTE kinase profiling, HER-2; assay type: biochemical
T3 construct: purchased Invitrogen/Life Technologies

c-Src = biological target: T4, c-Src (Homo sapiens, UniProt P12931); assay: Z`-LYTE kinase profiling, c-Src; assay type: biochemical
T4 construct: purchased Invitrogen/Life Technologies

recombinant human TOP1 = biological target: T5, recombinant human TOP1 (Homo sapiens, UniProt P11387); assay: Topoisomerase I-mediated DNA cleavage assay; conditions: tested at 0.1, 1, 10, 100 µM
T5 sequence (P11387 1-765): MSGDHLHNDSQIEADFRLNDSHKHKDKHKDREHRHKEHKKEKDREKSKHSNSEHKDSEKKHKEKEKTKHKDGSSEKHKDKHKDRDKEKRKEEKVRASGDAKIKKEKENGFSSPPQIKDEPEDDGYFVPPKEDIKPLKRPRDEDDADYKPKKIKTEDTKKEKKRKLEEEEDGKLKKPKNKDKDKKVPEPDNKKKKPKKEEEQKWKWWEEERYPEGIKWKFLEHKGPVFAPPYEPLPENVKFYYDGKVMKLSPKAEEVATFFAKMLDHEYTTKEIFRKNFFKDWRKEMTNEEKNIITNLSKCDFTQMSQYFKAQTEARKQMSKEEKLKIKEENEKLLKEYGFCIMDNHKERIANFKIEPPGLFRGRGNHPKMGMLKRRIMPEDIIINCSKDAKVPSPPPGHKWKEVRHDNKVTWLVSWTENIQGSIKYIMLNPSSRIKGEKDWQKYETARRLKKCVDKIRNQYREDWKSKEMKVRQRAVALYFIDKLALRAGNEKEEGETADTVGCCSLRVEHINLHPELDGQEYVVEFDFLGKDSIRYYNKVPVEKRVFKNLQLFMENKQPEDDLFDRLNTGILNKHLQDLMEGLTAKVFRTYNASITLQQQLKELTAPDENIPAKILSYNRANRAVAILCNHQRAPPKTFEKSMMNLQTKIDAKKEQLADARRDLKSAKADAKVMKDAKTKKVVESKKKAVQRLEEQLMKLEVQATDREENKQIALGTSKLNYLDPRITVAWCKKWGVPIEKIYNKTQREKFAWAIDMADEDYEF
Procedure: Radiolabeled DNA was incubated with recombinant human TOP1 in 20 µL reaction buffer (10 mmol/L Tris-HCl, pH 7.5, 50 mmol/L KCl, 5 mmol/L MgCl2, 0.1 mmol/L EDTA, and 15 µg/mL BSA) at 30 °C for 20 min in the presence of the indicated drug concentrations. Reactions were terminated by adding SDS (0.5% final concentration) followed by the addition of two volumes of loading dye (80% formamide, 10 mmol/L sodium hydroxide, 1 mmol/L sodium EDTA, 0.1% xylene cyanol, and 0.1% bromophenol blue). Aliquots of reaction mixtures were subjected to 20% denaturing PAGE. Gels were dried and visualised by using PhosphorImager and Image Quant software (Molecular Dynamics).

[3] = test system: DLD-1 colorectal cancer cell line; assay: MTT antiproliferative assay, DLD-1; conditions: for GI% DLD1: 10 µM, 24 h, MTT; for IC50: Homo sapiens, DLD-1, 24 h, read-out: IC50 DLD1 (half maximal growth inhibitory concentration); for fold superior activity compared to Gefitinib, DLD-1: from IC50 values
Procedure: as §2, §3

IGF-1R = biological target: T6, IGF-1R (Homo sapiens, UniProt P08069); assay: Z`-LYTE kinase profiling, IGF-1R; assay type: biochemical
T6 construct: purchased Invitrogen/Life Technologies

EGFR = EGFR (Homo sapiens, UniProt P00533); assay: Z`-LYTE kinase inhibitory assay, EGFR
FAK = FAK (Homo sapiens, UniProt Q05397); assay: Z`-LYTE kinase inhibitory assay, FAK
[4] = test system: HeLa cervical cancer cell line; assay: MTT antiproliferative assay, HeLa; assay type: cell-based; conditions: 10 µM, 24 h
Procedure: as §1

[5] = test system: MDMBA-231 breast cancer cell line; assay: MTT antiproliferative assay, MDMBA-231; assay type: cell-based; conditions: 10 µM, 24 h
Procedure: as §1

BTK = biological target: T7, BTK (Homo sapiens, UniProt Q06187); assay: Z`-LYTE kinase profiling, BTK; assay type: biochemical
T7 construct: purchased Invitrogen/Life Technologies

[6] = test system: DLD-1 colorectal cancer cell line; assay: Annexin V-FITC/propidium iodide apoptosis assay (AV/PI); assay type: cell-based; conditions: 3 µM, 24 h; control 7%
Procedure: Also, compounds 6f, 6i, 16d, and 20f exerted potential apoptotic effect elevating the total percentage of apoptotic cells to 84.33, 71.66, 51.66, and 80.66%, respectively.
Flow cytometric analysis was conducted using FACS Calibur flow cytometer (BD Biosciences, San Jose, CA, USA).

VEGFR-1 = biological target: T8, VEGFR-1 (Homo sapiens, UniProt P17948); assay: Z`-LYTE kinase profiling, VEGFR-1; assay type: biochemical
T8 construct: purchased Invitrogen/Life Technologies

EGFR, sequence (P00533 25-1210): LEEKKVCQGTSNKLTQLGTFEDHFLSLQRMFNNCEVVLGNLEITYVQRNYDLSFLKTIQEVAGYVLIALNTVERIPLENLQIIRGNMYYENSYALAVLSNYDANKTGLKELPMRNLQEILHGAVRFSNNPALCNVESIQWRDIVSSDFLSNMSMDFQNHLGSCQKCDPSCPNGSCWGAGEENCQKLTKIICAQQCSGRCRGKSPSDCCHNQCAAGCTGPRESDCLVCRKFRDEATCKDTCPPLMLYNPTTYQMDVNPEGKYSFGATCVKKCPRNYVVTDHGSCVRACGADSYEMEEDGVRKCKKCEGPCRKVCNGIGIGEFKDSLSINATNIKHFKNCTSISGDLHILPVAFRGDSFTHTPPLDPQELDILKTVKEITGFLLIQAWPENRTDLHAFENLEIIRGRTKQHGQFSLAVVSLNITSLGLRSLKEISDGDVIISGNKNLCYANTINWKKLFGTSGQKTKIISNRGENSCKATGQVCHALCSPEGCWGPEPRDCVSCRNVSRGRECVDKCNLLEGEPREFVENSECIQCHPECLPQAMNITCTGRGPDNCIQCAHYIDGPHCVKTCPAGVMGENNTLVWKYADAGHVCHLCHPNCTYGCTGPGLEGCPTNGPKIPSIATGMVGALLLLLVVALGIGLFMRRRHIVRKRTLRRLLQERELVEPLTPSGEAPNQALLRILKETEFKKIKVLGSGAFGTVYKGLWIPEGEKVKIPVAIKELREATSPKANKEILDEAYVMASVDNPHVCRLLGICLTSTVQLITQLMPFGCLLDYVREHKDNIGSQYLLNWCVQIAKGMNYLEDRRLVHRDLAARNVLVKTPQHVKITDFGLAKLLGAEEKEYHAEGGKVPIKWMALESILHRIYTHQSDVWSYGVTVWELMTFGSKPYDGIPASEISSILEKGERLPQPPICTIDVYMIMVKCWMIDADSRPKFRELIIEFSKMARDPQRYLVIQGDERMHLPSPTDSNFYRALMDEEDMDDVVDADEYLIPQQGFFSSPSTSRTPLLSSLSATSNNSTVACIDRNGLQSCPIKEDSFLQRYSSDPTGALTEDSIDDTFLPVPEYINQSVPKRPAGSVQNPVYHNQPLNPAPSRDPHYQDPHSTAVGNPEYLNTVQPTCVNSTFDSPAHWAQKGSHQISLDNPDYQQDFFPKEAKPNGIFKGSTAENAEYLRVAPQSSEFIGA
T1 sequence (P42685 whole entry): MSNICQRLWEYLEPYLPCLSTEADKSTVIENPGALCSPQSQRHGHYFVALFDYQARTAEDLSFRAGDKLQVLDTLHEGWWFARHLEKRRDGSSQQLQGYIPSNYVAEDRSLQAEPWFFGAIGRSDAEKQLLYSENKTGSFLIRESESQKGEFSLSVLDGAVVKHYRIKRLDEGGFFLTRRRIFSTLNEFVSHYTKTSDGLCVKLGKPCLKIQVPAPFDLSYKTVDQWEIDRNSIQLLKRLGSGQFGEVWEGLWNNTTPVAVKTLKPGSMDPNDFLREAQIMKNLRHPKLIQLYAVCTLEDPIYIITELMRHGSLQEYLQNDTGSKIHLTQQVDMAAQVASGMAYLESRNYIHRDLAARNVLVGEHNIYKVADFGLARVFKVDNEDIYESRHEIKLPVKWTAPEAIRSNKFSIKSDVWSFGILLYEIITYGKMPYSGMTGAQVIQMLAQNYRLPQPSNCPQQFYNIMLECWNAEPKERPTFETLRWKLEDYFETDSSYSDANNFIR
T3 sequence (P04626 23-1255): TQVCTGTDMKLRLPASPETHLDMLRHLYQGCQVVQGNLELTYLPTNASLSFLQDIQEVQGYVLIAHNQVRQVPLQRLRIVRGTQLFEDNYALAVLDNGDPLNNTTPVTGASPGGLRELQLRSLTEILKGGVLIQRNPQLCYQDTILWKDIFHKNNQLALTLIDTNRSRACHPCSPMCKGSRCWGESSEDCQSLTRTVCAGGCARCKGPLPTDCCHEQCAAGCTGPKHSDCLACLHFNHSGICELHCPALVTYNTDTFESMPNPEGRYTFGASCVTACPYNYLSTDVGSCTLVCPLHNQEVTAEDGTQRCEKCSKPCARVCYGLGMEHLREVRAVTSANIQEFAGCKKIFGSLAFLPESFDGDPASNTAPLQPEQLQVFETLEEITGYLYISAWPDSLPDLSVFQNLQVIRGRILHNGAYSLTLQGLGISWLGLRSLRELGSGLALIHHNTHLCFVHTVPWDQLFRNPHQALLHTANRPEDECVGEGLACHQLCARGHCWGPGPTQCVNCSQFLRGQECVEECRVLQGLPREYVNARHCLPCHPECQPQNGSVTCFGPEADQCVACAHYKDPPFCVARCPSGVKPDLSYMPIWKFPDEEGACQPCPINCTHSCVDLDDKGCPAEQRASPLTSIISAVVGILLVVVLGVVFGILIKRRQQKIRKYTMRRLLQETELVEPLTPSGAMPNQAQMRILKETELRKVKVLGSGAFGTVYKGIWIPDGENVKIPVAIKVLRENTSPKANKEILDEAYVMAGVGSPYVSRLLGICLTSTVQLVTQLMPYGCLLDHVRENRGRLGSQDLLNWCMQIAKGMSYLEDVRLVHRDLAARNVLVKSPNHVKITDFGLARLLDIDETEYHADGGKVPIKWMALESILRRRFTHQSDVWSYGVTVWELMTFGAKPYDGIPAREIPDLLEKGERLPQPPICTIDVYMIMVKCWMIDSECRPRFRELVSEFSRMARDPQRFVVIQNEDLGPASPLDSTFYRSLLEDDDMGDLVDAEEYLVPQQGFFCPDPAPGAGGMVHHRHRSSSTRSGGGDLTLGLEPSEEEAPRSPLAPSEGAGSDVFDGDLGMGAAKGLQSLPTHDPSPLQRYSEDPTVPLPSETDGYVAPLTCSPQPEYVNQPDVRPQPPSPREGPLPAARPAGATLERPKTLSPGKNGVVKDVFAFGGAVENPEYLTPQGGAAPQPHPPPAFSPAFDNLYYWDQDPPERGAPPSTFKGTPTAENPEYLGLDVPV
T4 sequence (P12931 whole entry): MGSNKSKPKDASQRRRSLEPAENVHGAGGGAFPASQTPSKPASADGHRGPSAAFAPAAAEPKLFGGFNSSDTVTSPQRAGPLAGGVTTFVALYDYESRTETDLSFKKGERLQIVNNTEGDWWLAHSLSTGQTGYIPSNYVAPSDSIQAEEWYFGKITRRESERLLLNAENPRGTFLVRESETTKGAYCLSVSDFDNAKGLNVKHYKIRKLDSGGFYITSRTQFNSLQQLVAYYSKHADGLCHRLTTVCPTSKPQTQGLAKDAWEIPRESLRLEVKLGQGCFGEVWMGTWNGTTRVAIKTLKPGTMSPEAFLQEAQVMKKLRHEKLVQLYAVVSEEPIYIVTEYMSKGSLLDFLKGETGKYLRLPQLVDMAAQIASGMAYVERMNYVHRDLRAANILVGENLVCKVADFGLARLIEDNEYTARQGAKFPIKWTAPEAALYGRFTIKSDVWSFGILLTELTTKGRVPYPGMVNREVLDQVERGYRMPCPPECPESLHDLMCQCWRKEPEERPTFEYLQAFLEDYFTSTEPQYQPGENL
T7 sequence (Q06187 whole entry): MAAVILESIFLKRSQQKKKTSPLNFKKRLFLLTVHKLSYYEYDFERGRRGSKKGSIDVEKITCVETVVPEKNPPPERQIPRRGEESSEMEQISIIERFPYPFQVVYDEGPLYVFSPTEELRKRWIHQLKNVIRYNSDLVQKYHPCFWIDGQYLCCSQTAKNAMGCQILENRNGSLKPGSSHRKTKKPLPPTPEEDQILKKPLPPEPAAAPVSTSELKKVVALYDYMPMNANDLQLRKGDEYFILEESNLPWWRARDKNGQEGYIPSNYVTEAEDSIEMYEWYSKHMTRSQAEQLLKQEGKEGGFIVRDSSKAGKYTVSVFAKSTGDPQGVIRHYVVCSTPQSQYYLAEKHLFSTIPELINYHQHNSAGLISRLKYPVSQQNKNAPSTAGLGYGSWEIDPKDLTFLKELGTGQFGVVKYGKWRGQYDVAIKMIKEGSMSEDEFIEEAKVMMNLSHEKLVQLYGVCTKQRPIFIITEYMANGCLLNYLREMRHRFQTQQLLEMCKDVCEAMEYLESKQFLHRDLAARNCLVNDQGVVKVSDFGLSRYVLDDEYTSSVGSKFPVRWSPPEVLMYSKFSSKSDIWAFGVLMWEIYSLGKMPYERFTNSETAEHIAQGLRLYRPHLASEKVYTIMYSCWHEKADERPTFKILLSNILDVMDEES

Structure (SMILES): COc1cc2nc(-c3ccc(C(F)(F)F)cc3)cc(OCCCNC3CCN(C)CC3)c2cc1OC [6h, N-(3-((6,7-dimethoxy-2–(4-(trifluoromethyl)phenyl)quinolin-4-yl)oxy)propyl)-1-methyl p-iperidin-4-amine]
- IC50 (FRK): 330 nM
- GI% MCF-7 [1]: 90.36%
- IC50 (VEGFR-2): 2450 nM
- GI% HCT-116 [2]: 89.34%
- IC50 [2]: 3280 ± 670 nM
- IC50 (HER-2): 1580 nM
- IC50 (c-Src): 3580 nM
- TOP1 inhibitory activity (semiquantitative score relative to 1 µM CPT) (recombinant human TOP1): −/+ (−/+: 0–25% 1 µM CPT)
- GI% DLD1 [3]: 92.36%
- IC50 [3]: 1790 ± 210 nM
- fold superior activity compared to Gefitinib, DLD-1 [3]: 5 fold
- IC50 (IGF-1R): 197 nM
- IC50 (EGFR): 20.2 ± 1.07 nM
- IC50 (FAK): 14.2 ± 2.72 nM
- GI% Hela [4]: 90.78%
- GI% MDMBA-231 [5]: 84.76%
- IC50 (BTK): 3480 nM
- total percentage of AV positive apoptotic DLD-1 cells [6]: 90.33%
- IC50 (VEGFR-1): 464 nM

Structure (SMILES): COc1cc2nc(-c3ccc(C(F)(F)F)cc3)cc(OCCCNCC3CCCO3)c2cc1OC (centres unmarked) [6i, 3-((6,7-dimethoxy-2–(4-(trifluoromethyl)phenyl)quinolin-4-yl)oxy)-N-((tetrahydrofuran-2-yl)methyl)propan-1-amine]
- IC50 (FRK): 1210 nM
- GI% MCF-7 [1]: 89.49%
- IC50 (VEGFR-2): 8240 nM
- GI% HCT-116 [2]: 82.11%
- IC50 [2]: 5680 ± 1420 nM
- IC50 (HER-2): 1380 nM
- IC50 (c-Src): 7010 nM
- TOP1 inhibitory activity (semiquantitative score relative to 1 µM CPT) (recombinant human TOP1): 0
- GI% DLD1 [3]: 88.76%
- IC50 [3]: 2480 ± 860 nM
- fold superior activity compared to Gefitinib, DLD-1 [3]: 4 fold
- IC50 (IGF-1R): 1710 nM
- IC50 (EGFR): 22.4 ± 2.05 nM
- IC50 (FAK): 18.4 ± 3.17 nM
- GI% Hela [4]: 78.64%
- GI% MDMBA-231 [5]: 81.60%
- IC50 (BTK): 7290 nM
- total percentage of AV positive apoptotic DLD-1 cells [6]: 71.66%
- IC50 (VEGFR-1): 801 nM

Structure (SMILES): Fc1ccc(-c2cc(OCCCN3CCOCC3)c3cc(Br)ccc3n2)cc1 [16d, 4-(3-((6-bromo-2-(4-fluorophenyl)quinolin-4-yl)oxy)propyl)morpholine]
- IC50 (FRK): 1730 nM
- GI% MCF-7 [1]: 86.38%
- melting point: 132 to 134 °C
- IC50 (VEGFR-2): 4690 nM
- GI% HCT-116 [2]: 97.48%
- IC50 [2]: 2430 ± 710 nM
- IC50 (HER-2): 358 nM
- IC50 (c-Src): 3900 nM
- TOP1 inhibitory activity (semiquantitative score relative to 1 µM CPT) (recombinant human TOP1): 0
- GI% DLD1 [3]: 90.11%
- IC50 [3]: 2180 ± 520 nM
- fold superior activity compared to Gefitinib, DLD-1 [3]: 4 fold
- IC50 (IGF-1R): 2230 nM
- IC50 (EGFR): 35 ± 2.64 nM
- IC50 (FAK): 17.4 ± 2.15 nM
- GI% Hela [4]: 85.67%
- GI% MDMBA-231 [5]: 80.24%
- IC50 (BTK): 2100 nM
- total percentage of AV positive apoptotic DLD-1 cells [6]: 51.66%
- IC50 (VEGFR-1): 1770 nM

Structure (SMILES): Clc1ccc(-c2cc(OCCCN3CCOCC3)c3cc(-c4ccco4)ccc3n2)cc1 [20f, 4-(3-((2-(4-chlorophenyl)-6-(furan-2-yl)quinolin-4-yl)oxy)propyl)morpholine]
- IC50 (FRK): 632 nM
- GI% MCF-7 [1]: 87.36%
- IC50 (VEGFR-2): 89.3 nM
- GI% HCT-116 [2]: 91.37%
- IC50 [2]: 2960 ± 120 nM
- IC50 (HER-2): 251 nM
- IC50 (c-Src): 92.1 nM
- TOP1 inhibitory activity (semiquantitative score relative to 1 µM CPT) (recombinant human TOP1): 0
- GI% DLD1 [3]: 94.18%
- IC50 [3]: 2090 ± 140 nM
- fold superior activity compared to Gefitinib, DLD-1 [3]: 4 fold
- IC50 (IGF-1R): 3530 nM
- IC50 (EGFR): 24.8 ± 2.71 nM
- IC50 (FAK): 15.4 ± 0.98 nM
- GI% Hela [4]: 79.64%
- GI% MDMBA-231 [5]: 82.58%
- IC50 (BTK): 23.5 nM
- total percentage of AV positive apoptotic DLD-1 cells [6]: 80.66%
- IC50 (VEGFR-1): 870 nM
